Laboratory results taken from PubChem BioAssay (NCI).
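Each compound was tested at five concentrations against cells in 96-well plates for 48 hours. The concentration for 50% growth inhibition is given as GI50. The concentration for full growth arrest is given as TGI.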

Tests used:
Assay in all cases: DTP human tumour cell line panel, 48 h
HOP-92 NSCLC = test system: HOP-92 NSCLC
NCI-H23 lung = test system: NCI-H23 lung
M14 melanoma = test system: M14 melanoma
A549 NSCLC = test system: A549 NSCLC
MALME-3M melanoma = test system: MALME-3M melanoma
786-0 renal = test system: 786-0 renal
ACHN renal = test system: ACHN renal
COLO 205 colon = test system: COLO 205 colon
SF-295 CNS = test system: SF-295 CNS
TK-10 renal = test system: TK-10 renal
CCRF-CEM leukemia = test system: CCRF-CEM leukemia
HT29 colon = test system: HT29 colon
OVCAR-8 ovarian = test system: OVCAR-8 ovarian
HCT-15 colon = test system: HCT-15 colon
MDA-N = test system: MDA-N
LOX IMVI melanoma = test system: LOX IMVI melanoma
CAKI-1 renal = test system: CAKI-1 renal
RPMI-8226 leukemia = test system: RPMI-8226 leukemia
EKVX NSCLC = test system: EKVX NSCLC
MOLT-4 leukemia = test system: MOLT-4 leukemia
MDA-MB-435 = test system: MDA-MB-435
HOP-62 NSCLC = test system: HOP-62 NSCLC
IGROV1 ovarian = test system: IGROV1 ovarian
SNB-75 CNS = test system: SNB-75 CNS
HCC-2998 colon = test system: HCC-2998 colon
DU-145 prostate = test system: DU-145 prostate
OVCAR-5 ovarian = test system: OVCAR-5 ovarian
HCT-116 colon = test system: HCT-116 colon
PC-3 prostate = test system: PC-3 prostate
NCI-H522 lung = test system: NCI-H522 lung
UACC-257 melanoma = test system: UACC-257 melanoma
SF-539 CNS = test system: SF-539 CNS
MCF7 breast = test system: MCF7 breast
MDA-MB-231 breast = test system: MDA-MB-231 breast
SK-MEL-5 melanoma = test system: SK-MEL-5 melanoma
SN12C renal = test system: SN12C renal
U251 CNS = test system: U251 CNS
UO-31 renal = test system: UO-31 renal
K-562 leukemia = test system: K-562 leukemia
SK-MEL-2 melanoma = test system: SK-MEL-2 melanoma
SNB-19 CNS = test system: SNB-19 CNS
UACC-62 melanoma = test system: UACC-62 melanoma
OVCAR-3 ovarian = test system: OVCAR-3 ovarian
SW-620 colon = test system: SW-620 colon
A498 renal = test system: A498 renal
SK-OV-3 ovarian = test system: SK-OV-3 ovarian
SF-268 CNS = test system: SF-268 CNS
KM12 colon = test system: KM12 colon
NCI/ADR-RES ovarian = test system: NCI/ADR-RES ovarian
SK-MEL-28 melanoma = test system: SK-MEL-28 melanoma
OVCAR-4 ovarian = test system: OVCAR-4 ovarian
NCI-H226 lung = test system: NCI-H226 lung
HS 578T breast = test system: HS 578T breast
T-47D breast = test system: T-47D breast
BT-549 breast = test system: BT-549 breast
NCI-H460 lung = test system: NCI-H460 lung
SR leukemia = test system: SR leukemia
RXF 393 renal = test system: RXF 393 renal
HL-60(TB) leukemia = test system: HL-60(TB) leukemia

C=C(C)C(=O)[C@@]12C(=O)[C@@H](C)CC[C@H]1[C@H](C)C[C@@H]2C=C(C)C
TGI (HOP-92 NSCLC): > 100 µM | TGI (NCI-H23 lung): 36.3 µM | TGI (M14 melanoma): > 100 µM | TGI (A549 NSCLC): > 100 µM | TGI (MALME-3M melanoma): 40.6 µM | TGI (786-0 renal): 42.4 µM | TGI (ACHN renal): 25.6 µM | TGI (COLO 205 colon): 41.5 µM | TGI (SF-295 CNS): > 100 µM | TGI (TK-10 renal): > 100 µM | TGI (CCRF-CEM leukemia): > 100 µM | TGI (HT29 colon): 34.8 µM | TGI (OVCAR-8 ovarian): > 100 µM | TGI (HCT-15 colon): 73.5 µM | TGI (MDA-N): 59.1 µM | TGI (LOX IMVI melanoma): 37 µM | TGI (CAKI-1 renal): 99.5 µM | TGI (RPMI-8226 leukemia): > 100 µM | TGI (EKVX NSCLC): 93.1 µM | TGI (MOLT-4 leukemia): 65.7 µM | TGI (MDA-MB-435): 54.3 µM | TGI (HOP-62 NSCLC): > 100 µM | TGI (IGROV1 ovarian): 64.5 µM | TGI (SNB-75 CNS): > 100 µM | TGI (HCC-2998 colon): 28 µM | TGI (DU-145 prostate): > 100 µM | TGI (OVCAR-5 ovarian): 55.2 µM | TGI (HCT-116 colon): 42.6 µM | TGI (PC-3 prostate): 59.4 µM | TGI (NCI-H522 lung): 27.7 µM | TGI (UACC-257 melanoma): 33.5 µM | TGI (SF-539 CNS): 47.4 µM | TGI (MCF7 breast): 52.3 µM | TGI (MDA-MB-231 breast): 51.3 µM | TGI (SK-MEL-5 melanoma): 45.1 µM | TGI (SN12C renal): 40.7 µM | TGI (U251 CNS): 49.6 µM | TGI (UO-31 renal): 43 µM | TGI (K-562 leukemia): > 100 µM | TGI (SK-MEL-2 melanoma): 26.7 µM | TGI (SNB-19 CNS): 32.5 µM | TGI (UACC-62 melanoma): > 100 µM | TGI (OVCAR-3 ovarian): 38.5 µM | TGI (SW-620 colon): 44 µM | TGI (A498 renal): > 100 µM | TGI (SK-OV-3 ovarian): > 100 µM | TGI (SF-268 CNS): 36 µM | TGI (KM12 colon): 56.4 µM | TGI (NCI/ADR-RES ovarian): 83.5 µM | TGI (SK-MEL-28 melanoma): > 100 µM | TGI (OVCAR-4 ovarian): > 100 µM | TGI (NCI-H226 lung): > 100 µM

CC(C)NC(=O)OCc1c(COC(=O)NC(C)C)c(-c2ccc(Cl)cc2)n2c1CCC2
GI50 (HOP-92 NSCLC): 1.41 µM | TGI (HOP-92 NSCLC): 5.09 µM | GI50 (NCI-H23 lung): 2.15 µM | TGI (NCI-H23 lung): 12.5 µM | GI50 (HS 578T breast): 2.91 µM | TGI (HS 578T breast): 11.8 µM | GI50 (M14 melanoma): 2.99 µM | TGI (M14 melanoma): 11.1 µM | GI50 (A549 NSCLC): 8.12 µM | TGI (A549 NSCLC): 33.5 µM | GI50 (MALME-3M melanoma): 2.36 µM | TGI (MALME-3M melanoma): 9.69 µM | GI50 (786-0 renal): 2.75 µM | TGI (786-0 renal): 8.68 µM | GI50 (ACHN renal): 1.34 µM | TGI (ACHN renal): 9.19 µM | GI50 (COLO 205 colon): 4.26 µM | TGI (COLO 205 colon): 17.1 µM | GI50 (SF-295 CNS): 1.58 µM | TGI (SF-295 CNS): 10.6 µM | GI50 (TK-10 renal): 1.98 µM | TGI (TK-10 renal): 7.97 µM | GI50 (CCRF-CEM leukemia): 1.04 µM | TGI (CCRF-CEM leukemia): > 33.4 µM | GI50 (T-47D breast): 3.9 µM | TGI (T-47D breast): 20.9 µM | GI50 (HT29 colon): 4.02 µM | TGI (HT29 colon): 26.4 µM | GI50 (OVCAR-8 ovarian): 4.1 µM | TGI (OVCAR-8 ovarian): > 85.5 µM | GI50 (HCT-15 colon): 4.07 µM | TGI (HCT-15 colon): > 50.1 µM | GI50 (LOX IMVI melanoma): 2.4 µM | TGI (LOX IMVI melanoma): 13.6 µM | GI50 (CAKI-1 renal): 0.534 µM | TGI (CAKI-1 renal): 3.83 µM | GI50 (RPMI-8226 leukemia): 2.6 µM | TGI (RPMI-8226 leukemia): 23.8 µM | GI50 (EKVX NSCLC): 4.09 µM | TGI (EKVX NSCLC): 32.9 µM | GI50 (MOLT-4 leukemia): 1.42 µM | TGI (MOLT-4 leukemia): > 26.2 µM | GI50 (MDA-MB-435): 5.04 µM | TGI (MDA-MB-435): 19.8 µM | GI50 (HOP-62 NSCLC): 3.05 µM | TGI (HOP-62 NSCLC): 16.2 µM | GI50 (IGROV1 ovarian): 1.59 µM | TGI (IGROV1 ovarian): 10.2 µM | GI50 (SNB-75 CNS): 1.7 µM | TGI (SNB-75 CNS): 8.44 µM | GI50 (HCC-2998 colon): 6.77 µM | TGI (HCC-2998 colon): 20.4 µM | GI50 (DU-145 prostate): 2.1 µM | TGI (DU-145 prostate): 7.18 µM | GI50 (OVCAR-5 ovarian): 3.3 µM | TGI (OVCAR-5 ovarian): 13.5 µM | GI50 (HCT-116 colon): 3.54 µM | TGI (HCT-116 colon): 17.5 µM | GI50 (PC-3 prostate): 3.32 µM | TGI (PC-3 prostate): 25.2 µM | GI50 (NCI-H522 lung): 1.77 µM | TGI (NCI-H522 lung): 5.66 µM | GI50 (UACC-257 melanoma): 4.16 µM | TGI (UACC-257 melanoma): 29.4 µM | GI50 (SF-539 CNS): 2.53 µM | TGI (SF-539 CNS): 9.72 µM | GI50 (MCF7 breast): 3.59 µM | TGI (MCF7 breast): 33.4 µM | GI50 (MDA-MB-231 breast): 2.96 µM | TGI (MDA-MB-231 breast): 12.3 µM | GI50 (SK-MEL-5 melanoma): 5.21 µM | TGI (SK-MEL-5 melanoma): 18.3 µM | GI50 (SN12C renal): 2.29 µM | TGI (SN12C renal): 15.4 µM | GI50 (U251 CNS): 2.88 µM | TGI (U251 CNS): 35.2 µM | GI50 (UO-31 renal): 2.05 µM | TGI (UO-31 renal): 6.8 µM | GI50 (BT-549 breast): 2.4 µM | TGI (BT-549 breast): 15.1 µM | GI50 (NCI-H460 lung): 0.751 µM | TGI (NCI-H460 lung): 14.4 µM | GI50 (K-562 leukemia): 2.65 µM | TGI (K-562 leukemia): > 26.1 µM | GI50 (SK-MEL-2 melanoma): 4.23 µM | TGI (SK-MEL-2 melanoma): 17.4 µM | GI50 (SNB-19 CNS): 4.65 µM | TGI (SNB-19 CNS): 21.7 µM | GI50 (UACC-62 melanoma): 2.08 µM | TGI (UACC-62 melanoma): 7.56 µM | GI50 (OVCAR-3 ovarian): 3.08 µM | TGI (OVCAR-3 ovarian): 10.3 µM | GI50 (SR leukemia): 0.218 µM | GI50 (RXF 393 renal): 1.85 µM | TGI (RXF 393 renal): 4.32 µM | GI50 (SW-620 colon): 3.35 µM | TGI (SW-620 colon): 19.2 µM | GI50 (A498 renal): 1.92 µM | TGI (A498 renal): 4.46 µM | GI50 (SK-OV-3 ovarian): 2.92 µM | TGI (SK-OV-3 ovarian): 12.5 µM | GI50 (SF-268 CNS): 2.25 µM | TGI (SF-268 CNS): 13.5 µM | GI50 (KM12 colon): 11 µM | TGI (KM12 colon): 25.9 µM | GI50 (NCI/ADR-RES ovarian): 3.05 µM | TGI (NCI/ADR-RES ovarian): 16.8 µM | GI50 (SK-MEL-28 melanoma): 7.52 µM | TGI (SK-MEL-28 melanoma): 22.2 µM | GI50 (HL-60(TB) leukemia): 0.79 µM | TGI (HL-60(TB) leukemia): 9.21 µM | GI50 (OVCAR-4 ovarian): 2.7 µM | TGI (OVCAR-4 ovarian): 14.3 µM | GI50 (NCI-H226 lung): 2.31 µM | TGI (NCI-H226 lung): 11.3 µM
